Experimental data from the supplement of paper PMC4862054.

Legend:
Conditions in all cases: incubation time: 72 h
[1] = tested on: MFM-223; experiment: normalised response (% of control), CellTox Green; higher = less cell death (100 = DMSO, 0 = benzethonium chloride kill control)
How it was run: (§1)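 Breast cancer cell lines (20 µl suspension) were seeded into 384-well plates holding compound at 5 concentrations in 10-fold steps over a compound-specific 10,000-fold range, then incubated 72 h. CellTox Green fluorescence (485/520 nm) was read first, then CellTiter-Glo luminescence after 10 min at room temperature. Each plate was normalised to 0.1 % DMSO (100) and a positive kill control (0). Each value is the normalised signal at a single concentration of the series.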

[2] = tested on: CAL-85-1; experiment: as above
How it was run: as §1

[3] = tested on: CAL-148; experiment: as above
How it was run: as §1

[4] = tested on: MDA-MB-468; experiment: as above
How it was run: as §1

[5] = tested on: DU-4475; experiment: as above
How it was run: as §1

[6] = tested on: MDA-MB-453; experiment: as above
How it was run: as §1

[7] = tested on: MCF-10A; experiment: as above
How it was run: as §1

[8] = tested on: CAL-120; experiment: as above
How it was run: as §1

[9] = tested on: MDA-MB-436; experiment: as above
How it was run: as §1

[10] = tested on: HDQ-P1; experiment: as above
How it was run: as §1

[11] = tested on: HCC1599; experiment: as above
How it was run: as §1

[12] = tested on: MDA-MB-231; experiment: as above
How it was run: as §1

[13] = tested on: BT-474; experiment: as above
How it was run: as §1

[14] = tested on: HCC1143; experiment: as above
How it was run: as §1

[15] = tested on: BT-549; experiment: as above
How it was run: as §1

[16] = tested on: CAL-51; experiment: as above
How it was run: as §1

[17] = tested on: Hs578T; experiment: as above
How it was run: as §1

[18] = tested on: SK-BR-3; experiment: normalised response (% of control), CellTiter-Glo; higher = more viable cells (100 = DMSO, 0 = benzethonium chloride kill control)
How it was run: as §1

[19] = tested on: MFM-223; experiment: as above
How it was run: as §1

[20] = tested on: HCC1937; experiment: as above
How it was run: as §1

[21] = tested on: CAL-85-1; experiment: as above
How it was run: as §1

[22] = tested on: CAL-148; experiment: as above
How it was run: as §1

[23] = tested on: MDA-MB-468; experiment: as above
How it was run: as §1

[24] = tested on: DU-4475; experiment: as above
How it was run: as §1

[25] = tested on: MDA-MB-453; experiment: as above
How it was run: as §1

[26] = tested on: MCF-10A; experiment: as above
How it was run: as §1

[27] = tested on: CAL-120; experiment: as above
How it was run: as §1

[28] = tested on: MDA-MB-436; experiment: as above
How it was run: as §1

[29] = tested on: HDQ-P1; experiment: as above
How it was run: as §1

[30] = tested on: HCC1599; experiment: as above
How it was run: as §1

[31] = tested on: MDA-MB-231; experiment: as above
How it was run: as §1

[32] = tested on: BT-474; experiment: as above
How it was run: as §1

[33] = tested on: HCC1143; experiment: as above
How it was run: as §1

[34] = tested on: BT-549; experiment: as above
How it was run: as §1

[35] = tested on: CAL-51; experiment: as above
How it was run: as §1

[36] = tested on: Hs578T; experiment: as above
How it was run: as §1

[37] = tested on: HCC1937; experiment: normalised response (% of control), CellTox Green; higher = less cell death (100 = DMSO, 0 = benzethonium chloride kill control)
How it was run: as §1

SMILES	normalised response [1]	normalised response [2]	normalised response [3]	normalised response [4]	normalised response [5]	normalised response [6]	normalised response [7]	normalised response [8]	normalised response [9]	normalised response [10]	normalised response [11]	normalised response [12]	normalised response [13]	normalised response [14]	normalised response [15]	normalised response [16]	normalised response [17]	normalised response [18]	normalised response [19]	normalised response [20]	normalised response [21]	normalised response [22]	normalised response [23]	normalised response [24]	normalised response [25]	normalised response [26]	normalised response [27]	normalised response [28]	normalised response [29]	normalised response [30]	normalised response [31]	normalised response [32]	normalised response [33]	normalised response [34]	normalised response [35]	normalised response [36]	normalised response [37]
C=CC(=O)Nc1cc2c(Nc3ccc(F)c(Cl)c3)ncnc2cc1OCCCN1CCOCC1 [Canertinib] (1000 nM)	106%	73.3%	100%	140%	104%	102%	80.4%	97.7%	88.9%	97.2%	114%	104%	83.2%	102%	135%	93.2%	109%	27.2%	95%	88.1%	49.2%	75.3%	62%	101%	73.6%	32.2%	94.2%	90.5%	67.4%	81.2%	78%	76.8%	91.5%	80.1%	62.2%	104%	
Nc1ccccc1NC(=O)c1ccc(CNC(=O)OCc2cccnc2)cc1 [Entinostat] (1000 nM)	90.1%	107%	98.3%	65.9%	99.9%	102%	90.1%	102%	86.4%	109%	90.1%	108%	99.8%		114%	70.2%	75%	88.8%	98.2%	87.8%	105%	93.7%	91.4%	102%	89.8%	142%	97%	90.5%	93.5%	83.6%	93.2%	92.4%	98.1%	62.1%	45.2%	86.8%	116%
Nc1nc(F)nc2c1ncn2[C@@H]1O[C@H](CO)[C@@H](O)[C@@H]1O [Fludarabine] (1000 nM)	101%	109%	99.5%	124%	105%	101%	79.7%	101%		111%	105%	114%	102%	117%	107%	122%	50.2%	107%	107%	99.3%	98.5%	97.2%	102%	102%	101%	106%	97.8%	102%	102%	108%	108%	110%	106%	98.2%	131%	102%	88.6%
C=CC(=O)N1CCC[C@@H](n2nc(-c3ccc(Oc4ccccc4)cc3)c3c(N)ncnc32)C1 [Ibrutinib] (100 nM)		84.1%	99.6%	122%	103%	104%	101%	103%	92.1%	102%	99.2%	111%	83.1%	92.1%	117%	93.6%	56.5%	27.5%	107%	97.6%	90.4%	95.4%	93.1%	105%	72.5%	91%	96.2%	102%	82.5%	118%	105%	97.5%	100%	111%	73.1%	106%	
CCN(CC)CCCC(C)Nc1c2ccc(Cl)cc2nc2ccc(OC)cc12 (configuration not stated) [Mepacrine] (5000 nM)	97.6%	106%	71.8%	89.3%	102%	107%	99.3%	101%	99.8%	111%	98%	81.8%	97.2%		57.4%	103%	84.3%	102%	92.5%	101%	101%	88.7%	94.4%	97.3%	102%	108%	110%	103%	112%	101%	98.1%	104%	98%	93%	113%	104%	105%
C[C@H]1C[C@@H]2[C@H]([C@@H](O)C[C@@]3(C)[C@H]2CC[C@]3(O)C(=O)CO)[C@@]2(C)C=CC(=O)C=C12 [Methylprednisolone] (1000 nM)		104%	107%	109%	103%	98.5%	108%	101%		105%	109%	142%	98.6%	108%	131%	108%	105%	94.5%	106%	97.9%	117%	108%	119%	100%	101%	96.7%	80.5%	105%	83.2%	105%	159%	151%	109%	100%	108%	114%	127%
O=C(O)C(=O)O.[NH-][C@@H]1CCCC[C@H]1[NH-].[Pt+2] [Oxaliplatin] (1000 nM)	85.6%	102%		157%	98.1%	106%	107%	102%	95.7%	102%	93.9%	98.2%	95.9%	101%	121%	108%	63.9%	92.8%	92.3%	99.5%	95.9%	82.5%	91.1%	94.4%	89.2%	96.5%	96.9%	106%	106%	100%	97%	97.7%	95.5%	105%	128%	104%	97.7%
Cc1cnc(NC(=O)Nc2cc(Br)c(C)cc2OC[C@@H]2CNCCO2)cn1 [Rabusertib] (100 nM)		102%	108%	128%	106%	106%	105%	99.9%	110%	80.4%	103%	118%	102%	97.3%	123%	85.5%	55.6%	109%	100%	92.4%	99%	107%	101%	99.1%	88.1%	112%	98.1%	113%	105%	108%	104%	103%	106%	104%	72.5%	98.7%	128%
CNC(=O)c1cc(Oc2ccc(NC(=O)Nc3cc(C(C)(C)C)nn3-c3ccc4ncccc4c3)c(F)c2)ccn1 [Rebastinib] (100 nM)	95.3%	103%	84%	118%	103%	101%		101%	97.3%	94.4%	99.2%	90.2%	98.6%	113%	95%	105%	98.8%	104%	65.3%	108%	101%	105%	113%	101%	101%	119%	92.2%	110%	114%	110%	90%	97%	110%	111%	120%	114%	112%
